Results published in US8178506B2, “Oligomeric compounds and compositions for use in modulation of small non-coding RNAs” (Regulus Therapeutics Inc., priority 2003, dated 2012).
In the oligonucleotide strings, read from the 5' end, every base follows the letter of its sugar. An asterisk marks phosphorothioate; unmarked linkages are phosphodiester. Other units and linkages are bracketed, terminal groups are in braces. A string of capitals states the bases alone. e = 2'-O-(2-methoxyethyl) (MOE); [5mC] = 5-methylcytosine

Tests used:
Format in all cases: cell-based, human
adipocytes = test: Triglyceride accumulation assay in adipocytes
aP2 = aP2 mRNA expression in adipocytes (real-time PCR); conditions: for aP2 mRNA: Table 75
HSL = HSL mRNA expression in adipocytes (real-time PCR)
Glut4 = Glut4 mRNA expression in adipocytes (real-time PCR)
PPARγ = PPARγ mRNA expression in adipocytes (real-time PCR)
[1] = Table 17, differentiating adipocytes, control = treatment with ISIS 342673
[2] = differentiating adipocytes transfected with oligomeric compound, Table 75
[3] = differentiating adipocytes transfected with oligomeric compound

Substance	TG (triglyceride accumulation) (adipocytes; [1])	TG (triglyceride accumulation) (adipocytes; [2])	AP2 mRNA (aP2; [1])	aP2 mRNA (aP2; [3])	HSL mRNA (HSL; [1])	HSL mRNA (HSL; [2])	GLUT4 mRNA (Glut4; [1])	GLUT4 mRNA (Glut4; [2])	PPAR gamma mRNA (PPARγ; [1])	PPAR gamma mRNA (PPARγ; [2])	TG (triglyceride accumulation) (adipocytes; [3])	AP2 mRNA (aP2; [3])	HSL mRNA (HSL; [3])	GLUT4 mRNA (Glut4; [3])	PPAR gamma mRNA (PPARγ; [3])
328116 (antisense e[5mC]*eA*eA*eA*eA*eT*eT*eG*e[5mC]*eA*eA*eG*e[5mC]*eA*eA*eA*eT*eT*eG*e[5mC]*eA) [compound 328116]	82.1 percentage of control	107 percentage of untreated control (UTC)	87.7 percentage of control	99 percentage of untreated control (UTC)	75.8 percentage of control	91 percentage of untreated control (UTC)	75.2 percentage of control	105 percentage of untreated control (UTC)	78.4 percentage of control	95 percentage of untreated control (UTC)	–	–	–	–	–
328118 (antisense eT*eA*eT*eT*eA*eT*e[5mC]*eA*eG*e[5mC]*eA*eT*e[5mC]*eT*eG*e[5mC]*eT*eT*eG*e[5mC]*eA) [compound 328118]	69.3 percentage of control	69 percentage of untreated control (UTC)	92.7 percentage of control	74 percentage of untreated control (UTC)	85.3 percentage of control	67 percentage of untreated control (UTC)	76.6 percentage of control	57 percentage of untreated control (UTC)	80.2 percentage of control	72 percentage of untreated control (UTC)	–	–	–	–	–
328120 (antisense eA*eA*eG*eA*eA*eG*eG*eA*eA*eG*eG*eA*eG*eG*eG*eA*eA*eA*eG*e[5mC]*eA) [compound 328120]	82.7 percentage of control	80 percentage of untreated control (UTC)	81.0 percentage of control	80 percentage of untreated control (UTC)	77.7 percentage of control	67 percentage of untreated control (UTC)	94.8 percentage of control	68 percentage of untreated control (UTC)	70.5 percentage of control	73 percentage of untreated control (UTC)	–	–	–	–	–
328121 (antisense eA*eT*eG*eA*e[5mC]*eT*eA*e[5mC]*eA*eA*eG*eT*eT*eT*eA*eT*eG*eG*e[5mC]*e[5mC]*eA) [compound 328121]	134.8 percentage of control	119 percentage of untreated control (UTC)	127.0 percentage of control	119 percentage of untreated control (UTC)	126.0 percentage of control	110 percentage of untreated control (UTC)	140.8 percentage of control	115 percentage of untreated control (UTC)	103.6 percentage of control	105 percentage of untreated control (UTC)	–	–	–	–	–
328122 (antisense e[5mC]*eA*eA*eA*eA*e[5mC]*eA*eT*eA*eA*eA*eA*eA*eT*e[5mC]*e[5mC]*eT*eT*eG*e[5mC]*eA) [compound 328122]	78.9 percentage of control	97 percentage of untreated control (UTC)	79.3 percentage of control	99 percentage of untreated control (UTC)	72.7 percentage of control	89 percentage of untreated control (UTC)	85.9 percentage of control	91 percentage of untreated control (UTC)	77.8 percentage of control	103 percentage of untreated control (UTC)	–	–	–	–	–
328124 (antisense eA*eG*e[5mC]*eA*eG*eG*eT*eG*eA*eA*eG*eG*e[5mC]*eA*e[5mC]*e[5mC]*eT*eG*eG*e[5mC]*eT) [compound 328124]	99.1 percentage of control	108 percentage of untreated control (UTC)	101.8 percentage of control	118 percentage of untreated control (UTC)	103.6 percentage of control	96 percentage of untreated control (UTC)	122.7 percentage of control	105 percentage of untreated control (UTC)	90.4 percentage of control	92 percentage of untreated control (UTC)	–	–	–	–	–
328126 (antisense e[5mC]*e[5mC]*eA*eA*eG*eT*eG*eT*eT*eA*eG*eA*eG*e[5mC]*eA*eA*eG*eA*eT*e[5mC]*eA) [compound 328126]	98.9 percentage of control	108 percentage of untreated control (UTC)	90.9 percentage of control	120 percentage of untreated control (UTC)	83.2 percentage of control	135 percentage of untreated control (UTC)	100.7 percentage of control	107 percentage of untreated control (UTC)	75.0 percentage of control	98 percentage of untreated control (UTC)	–	–	–	–	–
328127 (antisense eA*eA*e[5mC]*eG*eA*eT*eA*eA*eA*eA*e[5mC]*eA*eT*eA*e[5mC]*eT*eT*eG*eT*e[5mC]*eA) [compound 328127]	74.5 percentage of control	81 percentage of untreated control (UTC)	86.9 percentage of control	95 percentage of untreated control (UTC)	89.7 percentage of control	93 percentage of untreated control (UTC)	80.8 percentage of control	75 percentage of untreated control (UTC)	77.6 percentage of control	85 percentage of untreated control (UTC)	–	–	–	–	–
328128 (antisense eA*eG*eT*eA*eA*e[5mC]*eT*eT*e[5mC]*eT*eT*eG*e[5mC]*eA*eG*eT*eT*eG*eG*eA) [compound 328128]	98.7 percentage of control	61 percentage of untreated control (UTC)	100.7 percentage of control	90 percentage of untreated control (UTC)	94.1 percentage of control	72 percentage of untreated control (UTC)	101.9 percentage of control	73 percentage of untreated control (UTC)	84.0 percentage of control	86 percentage of untreated control (UTC)	–	–	–	–	–
328130 (antisense eA*e[5mC]*e[5mC]*eT*e[5mC]*eA*eG*eG*eT*eG*eG*eT*eT*eG*eA*eA*eG*eG*eA*eG*eA) [compound 328130]	122.4 percentage of control	91 percentage of untreated control (UTC)	86.6 percentage of control	72 percentage of untreated control (UTC)	76.5 percentage of control	64 percentage of untreated control (UTC)	83.8 percentage of control	55 percentage of untreated control (UTC)	99.4 percentage of control	77 percentage of untreated control (UTC)	–	–	–	–	–
328131 (antisense eA*eT*eA*eT*eG*eT*e[5mC]*eA*eT*eA*eT*e[5mC]*eA*eA*eA*e[5mC]*eT*e[5mC]*e[5mC]*eT*eA) [compound 328131]	89.1 percentage of control	74 percentage of untreated control (UTC)	95.4 percentage of control	63 percentage of untreated control (UTC)	81.8 percentage of control	51 percentage of untreated control (UTC)	103.6 percentage of control	56 percentage of untreated control (UTC)	88.2 percentage of control	55 percentage of untreated control (UTC)	–	–	–	–	–
328132 (antisense eG*eT*eG*eA*eG*eA*eG*eT*eA*eG*e[5mC]*eA*eT*eG*eT*eT*eT*eG*eT*e[5mC]*eT) [compound 328132]	114.1 percentage of control	–	90.2 percentage of control	–	73.7 percentage of control	–	72.1 percentage of control	–	90.0 percentage of control	–	120 percentage of untreated control (UTC)	81 percentage of untreated control (UTC)	89 percentage of untreated control (UTC)	67 percentage of untreated control (UTC)	94 percentage of untreated control (UTC)
328134 (eA*eA*eT*eT*eG*eG*eA*e[5mC]*eA*eA*eA*eG*eT*eG*e[5mC]*e[5mC]*eT*eT*eT*e[5mC]*eA; anti-miR) [compound 328134]	85.7 percentage of control	107 percentage of untreated control (UTC)	80.1 percentage of control	97 percentage of untreated control (UTC)	74.7 percentage of control	109 percentage of untreated control (UTC)	88.3 percentage of control	109 percentage of untreated control (UTC)	78.4 percentage of control	86 percentage of untreated control (UTC)	–	–	–	–	–
